Reference: US20140179681A1, “METHODS AND COMPOSITIONS OF TARGETED DRUG DEVELOPMENT” (priority 2010, published 2014)
Counter-ions that a name gives are not always drawn. Like-named read-outs stand apart in the source and are kept apart here.

What was measured:
EGFR = biological target: T1, EGFR (Homo sapiens, UniProt P00533); experiment: EGFR in-cell Western (ICW) screening protocol (EGFR inhibition assay); assay type: cell-based; set-up: ICW 1 / ICW 2 / ICW Avg: unit not given here; details: for ICW Avg / ICW 1 / ICW 2: ICW assay; for ICW Avg: average of runs 1 and 2; for ICW 1: run 1; for ICW 2: run 2; for ICW Screen: Table 11, % Inhibition of EGF dependent EGFR phosphorylation in A431 cells, compound 125 μM in assay
T1 construct: host or cells: A431
Procedure, shortened: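 In-cell Western read-out: fixed A431 cells were co-stained for total EGFR and phospho-EGFR (Tyr1173; some runs Tyr1045). Before fixation, cells were serum-starved for 2 h, exposed to compound for 4 h, then given EGF for 10 min, usually at 10 ng/ml final (6.6 or 12.5 ng/ml in some runs).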

MDBK line = experiment: MTT Cell Proliferation Assay, MDBK cells; assay type: cell-based, bovine
Procedure, shortened: (§1)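 Each concentration ran in quadruplicate across duplicate plates, with compounds serially diluted in DMSO and delivered at 0.5% DMSO in 0.5% FBS medium for 3 days.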

[1] = test system: epithelial carcinoma A431 cell line; experiment: MTT Cell Proliferation Assay, A431 cells; assay type: cell-based; details: for MTT Assay IC50(A431/MDBK): ratio in parentheses: ratio MDBK IC50 / A431 IC50 (selectivity)
Procedure, shortened: as §1

[2] = MDBK cells, second value of cell, read-out: MTT Assay IC50(A431/MDBK): MDBK
[3] = A431 cells, first value of cell, read-out: MTT Assay IC50(A431/MDBK): A431
[4] = Bos taurus, MDBK, MDBK cells, second value of cell, read-out: MTT Assay IC50(A431/MDBK): MDBK
[5] = Homo sapiens, A-431, A431 cells, first value of cell, read-out: MTT Assay IC50(A431/MDBK): A431
[6] = Bos taurus, MDBK, Table 11, second of x/y(ratio): MDBK, unit not printed (doses in μM), read-out: MTT Screen (second value)
[7] = Homo sapiens, A-431, Table 11, first of x/y(ratio): A431, unit not printed (doses in μM), read-out: MTT Screen (first value)
[8] = Homo sapiens, A-431, 72 h, Table 11, first of x/y(ratio): A431, unit not printed (doses in μM), read-out: MTT Screen (first value)

T1 sequence (P00533 25-1210): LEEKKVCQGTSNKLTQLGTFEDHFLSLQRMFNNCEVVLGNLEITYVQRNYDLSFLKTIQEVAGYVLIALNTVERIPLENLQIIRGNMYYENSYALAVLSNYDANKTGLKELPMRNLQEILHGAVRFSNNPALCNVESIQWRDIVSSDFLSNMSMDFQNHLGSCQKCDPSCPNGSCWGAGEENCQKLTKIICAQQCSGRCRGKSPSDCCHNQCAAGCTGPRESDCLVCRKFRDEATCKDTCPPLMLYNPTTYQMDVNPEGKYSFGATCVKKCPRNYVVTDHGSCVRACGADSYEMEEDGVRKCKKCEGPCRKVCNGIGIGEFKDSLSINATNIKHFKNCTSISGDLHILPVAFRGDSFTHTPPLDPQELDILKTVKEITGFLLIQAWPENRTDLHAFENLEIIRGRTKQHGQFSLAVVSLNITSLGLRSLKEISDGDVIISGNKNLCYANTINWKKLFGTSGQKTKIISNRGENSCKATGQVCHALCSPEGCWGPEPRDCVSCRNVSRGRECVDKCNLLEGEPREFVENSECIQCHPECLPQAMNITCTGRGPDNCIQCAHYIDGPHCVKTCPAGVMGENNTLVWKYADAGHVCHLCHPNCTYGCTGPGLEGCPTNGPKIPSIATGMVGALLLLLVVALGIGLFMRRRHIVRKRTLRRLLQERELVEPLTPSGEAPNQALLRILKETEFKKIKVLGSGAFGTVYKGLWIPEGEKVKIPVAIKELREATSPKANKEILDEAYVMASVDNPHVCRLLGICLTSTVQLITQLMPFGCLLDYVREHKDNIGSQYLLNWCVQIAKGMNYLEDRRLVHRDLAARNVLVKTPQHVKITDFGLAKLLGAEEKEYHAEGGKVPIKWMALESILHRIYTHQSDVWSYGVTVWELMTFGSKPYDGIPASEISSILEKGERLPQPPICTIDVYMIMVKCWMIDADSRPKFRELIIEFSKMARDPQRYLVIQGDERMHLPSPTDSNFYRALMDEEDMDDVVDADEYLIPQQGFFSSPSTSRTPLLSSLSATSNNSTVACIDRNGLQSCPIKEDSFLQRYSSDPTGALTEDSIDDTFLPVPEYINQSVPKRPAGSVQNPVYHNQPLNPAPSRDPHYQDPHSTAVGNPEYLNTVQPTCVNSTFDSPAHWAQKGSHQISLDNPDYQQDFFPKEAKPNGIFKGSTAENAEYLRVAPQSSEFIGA

Structure (SMILES) | ICW Avg (EGFR) | ICW 1 (EGFR) | ICW 2 (EGFR) | MTT Assay IC50(A431/MDBK): ratio in parentheses [1] | IC50 (MDBK line; [4]) | IC50 [1, 5] | other results
CCc1c(C)nc(Nc2nc(C)c3ccc(C)cc3n2)[nH]c1=O [12683 + TFA] | 40.88 | 54.37 | 27.38 | 0.71 | – | – | IC50 (MDBK line; [2]): 45.3 µM; IC50 [1, 3]: 63.4 µM
CCOc1ccc2nc(Nc3nc(C)c(CCC(C)C)c(=O)[nH]3)nc(C)c2c1 [12684 + TFA] | 28.28 | 40.81 | 15.75 | 0.76 | 19.5 µM | 25.7 µM | –
CCOc1ccc2nc(Nc3nc(C)cc(-c4ccccc4)n3)nc(C)c2c1 [12688 + TFA] | 36.40 | 45.86 | 26.95 | 0.71 | 3.58 µM | 5.04 µM | –
Cc1ccc2nc(Nc3nc(C)cc(-c4ccccc4)n3)nc(C)c2c1 [12689 + TFA] | 30.58 | 44.07 | 17.08 | 0.99 | 43.6 µM | 44.1 µM | –
Cc1ccc2c(O)nc(Nc3nc(C)cc(-c4ccccc4)n3)nc2c1 [12693 + TFA] | 57.18 | 40.36 | 74.00 | 0.76 | 6.88 µM | 9.01 µM | –
COc1cccc2c(C)nc(Nc3nc(C)c(C)c(=O)[nH]3)nc12 [12723 + TFA] | 66.62 | 67.34 | 65.91 | 1.07 | – | – | IC50 (MDBK line; [2]): 9.99 µM; IC50 [1, 3]: 9.33 µM
CCOc1cccc2c(C)nc(Nc3nc(C)c(C)c(=O)[nH]3)nc12 [12735 + TFA] | 64.72 | 69.46 | 59.98 | 0.85 | 15.3 µM | 17.9 µM | –
CCc1c(C)nc(Nc2nc(C)c3cccc(OC)c3n2)[nH]c1=O [12738 + TFA] | 45.35 | 53.67 | 37.02 | 0.54 | – | – | IC50 (MDBK line; [2]): 24.6 µM; IC50 [1, 3]: 45.4 µM
Cc1nc(Nc2nc(CSc3ccccn3)cc(=O)[nH]2)nc2ccccc12 [12740 + TFA] | 28.34 | 28.77 | 27.91 | 0.48 | – | – | IC50 (MDBK line; [2]): 23.6 µM; IC50 [1, 3]: 49.4 µM
Cc1ccc2nc(Nc3nc(C(C)C)cc(=O)[nH]3)nc(C)c2c1 [12741 + TFA] | 33.57 | 42.10 | 25.04 | 0.44 | 28 µM | 63.2 µM | –
CCCCc1c(C)nc(Nc2nc(C)c3ccccc3n2)[nH]c1=O [12743 + TFA] | 25.65 | 9.17 | 42.12 | 1.43 | – | – | IC50 (MDBK line; [2]): 9.86 µM; IC50 [1, 3]: 6.88 µM
CCCCc1c(C)nc(Nc2nc(C)c3ccc(C)cc3n2)[nH]c1=O [12776 + TFA] | 25.32 | 21.34 | 29.30 | 0.64 | 19 µM | 29.7 µM | –
O=C(NC(=S)Nc1ccc(S(=O)(=O)NCCc2ccccc2)cc1)C1CC1 [AD4-10120] | – | – | – | – | – | – | ICW Screen (ICW Inhibition) (EGFR): 39.873; IC50 (MDBK line; Bos taurus, MDBK, second value of 'a/b (c)', taken as MDBK cells, read-out: MTT Screen, second value of cell): 39.3 µM; IC50 ([1]; Homo sapiens, A-431, first value of 'a/b (c)', taken as A431 cells, read-out: MTT Screen, first value of cell): 22.8 µM
CCc1cc2c(CN3CCN(c4ccc(OC)cc4)CC3)cc(=O)oc2cc1O [AD4-10171] | – | – | – | – | – | – | ICW Screen (EGFR): 39.389; IC50 (MDBK line; [6]): 21 µM; IC50 [1, 7]: 16.5 µM
Cc1cc(C)c2oc(=O)cc(CN3CCN(Cc4ccc5c(c4)OCO5)CC3)c2c1 [AD4-10174] | – | – | – | – | – | – | ICW Screen (EGFR): 45.85; IC50 (MDBK line; Bos taurus, MDBK, Table 11, second of x/y(ratio): MDBK, unit inferred, read-out: MTT Follow-up (second value)): 101 µM; IC50 (MDBK line; [6]): 8.58 µM; IC50 ([1]; Homo sapiens, A-431, Table 11, first of x/y(ratio): A431, unit inferred, read-out: MTT Follow-up (first value)): 4.42 µM; IC50 [1, 7]: 2.26 µM
O=c1cc(CN2CCN(Cc3ccc4c(c3)OCO4)CC2)c2cc3c(cc2o1)CCC3 [AD4-10179] | – | – | – | – | – | – | ICW Screen (EGFR): 34.742; IC50 (MDBK line; [6]): 13.9 µM; IC50 [1, 8]: 13.2 µM
O=c1cc(CN2CCN(Cc3ccccc3)CC2)c2cc(Cl)c(O)cc2o1 [AD4-10180] | – | – | – | – | – | – | ICW Screen (EGFR): 32.1; IC50 (MDBK line; [6]): 36.3 µM; IC50 [1, 8]: 16.7 µM
